Where two headings read alike, the source gives them in different places.
Legend:
[1] = tested on: HAOSMC (human aortic smooth muscle cell); experiment: Cell proliferation inhibition test against normal cells HAOSMC; format: cell-based; conditions: for IC50: Homo sapiens, 72 h, read-out: IC50 HAOSMC; for ratio HAOSMC: IC50 HAOSMC relative to IC50 NUGC4
Procedure: [Worded in the source for another cell line; this cell line is reported under the same test.] (§1) The thus-prepared test compound solution was added to each well of the NUGC4 cell culture plate at 0.1 mL/well, and the plate was incubated in an incubator under 5% CO2 gas atmosphere at 37° C. for 3 days. […] Thereafter, the plate was washed with tap water and dried. Then, aqueous 0.05% Crystal Violet/20% methanol solution (product of Wako Pure Chemical Industries Ltd.) was added to each well at 100 μL/well, and the plate was left to stand at room temperature for 20 minutes, whereby cells were stained. Thereafter, the plate was washed with tap water and dried. To each well, 0.05 M NaH2PO4/ethanol (1/1=v/v) (100 μL) was added, to thereby extract Crystal Violet. The absorbance of the extracted Crystal Violet was measured at 540 nm using a microplate reader, and the absorbance was employed as an index for living cell count. […] Percent inhibition (%)=(C−T)/C×100 • T: Absorbance of well to which a test compound was added • C: Absorbance of well to which no test compound was added

c-Met = c-Met (Homo sapiens, UniProt P08581); experiment: c-Met inhibitory assay using AlphaScreen (Method A); format: biochemical; set-up: purchased Carna bio Co., Ltd 08-051; conditions: ATP 20 μM
Procedure: Inhibitory activity of compounds against c-Met kinase was determined through the following procedures. Method A) c-Met inhibitory assay using AlphaScreen™
A biotinylated peptide including a phosphorylated site of Pyk2 (Tyr402), which is reported as a bio-substrate in Clin. Cancer Res. vol. […] The mixture was allowed to react at room temperature for 20 minutes. EDTA was added to the reaction mixture to a final concentration of 50 mM, to thereby terminate reaction. […] The reaction was done for one hour at room temperature. Thereafter, the fluorescence intensity from the reaction mixture was measured using a multi-label counter (EnVision™, Perkin Elmer).

HCT-116 = experiment: Cell proliferation inhibition test against c-Met low expressing tumor cells (HCT-116); format: cell-based; conditions: for IC50: Homo sapiens; for ratio HCT-116: IC50 HCT-116 relative to IC50 NUGC4
NUGC4 cells = experiment: Cell-proliferation inhibitory assay against NUGC4 cells (Crystal Violet); format: cell-based; conditions: Homo sapiens, NUGC-4, 72 h; NUGC4, cancer, c-Met status (+), 3 days
Procedure: Cell-Proliferation Inhibitory Assay Against NUGC4 Cells (Human Gastric Cancer Cell Strain in Which c-Met is Over-Expressed and Highly Activated), In Vitro Test
NUGC4 cell suspension (in a 10% FBS-containing RPMI 1640 medium (product of Wako Pure Chemical Industries Ltd.) or a FBS-containing DMEM medium (product of Nacalai Tesque, Inc.)) was inoculated to each well of a 96-well (flat-bottom) microplate in an amount of 2×10^3 cells (0.1 mL), and the plate was incubated in an incubator under 5% CO2 gas atmosphere at 37° C. for one day. Each of the compounds of the present invention and comparative compound 1 was dissolved in dimethyl sulfoxide to a concentration of 30 mM. The solution was diluted with 10% FBS-containing RPMI 1640 or DMEM medium, to a final test compound concentration of 60, 20, 6, 2, 0.6, or 0.2 μM. The thus-prepared test compound solution was added to each well of the NUGC4 cell culture plate at 0.1 mL/well, and the plate was incubated in an incubator under 5% CO2 gas atmosphere at 37° C. for 3 days. After culturing, 25% aqueous glutaraldehyde solution (product of Nacalai Tesque, Inc.) was added to each well at 20 μL, and the plate was left to stand at room temperature for 20 minutes, whereby cells were fixed. Thereafter, the plate was washed with tap water and dried. Then, aqueous 0.05% Crystal Violet/20% methanol solution (product of Wako Pure Chemical Industries Ltd.) was added to each well at 100 μL/well, and the plate was left to stand at room temperature for 20 minutes, whereby cells were stained. Thereafter, the plate was washed with tap water and dried. To each well, 0.05 M NaH2PO4/ethanol (1/1=v/v) (100 μL) was added, to thereby extract Crystal Violet. The absorbance of the extracted Crystal Violet was measured at 540 nm using a microplate reader, and the absorbance was employed as an index for living cell count. Percent inhibition was calculated by the following equation, and the 50% inhibition test compound concentration (IC50 (μM)) was calculated. Percent inhibition (%)=(C−T)/C×100 • T: Absorbance of well to which a test compound was added • C: Absorbance of well to which no test compound was added

[2] = tested on: HMEC (human skin microvascular endothelial cell); experiment: Cell proliferation inhibition test against normal cells HMEC; format: cell-based; conditions: for IC50: Homo sapiens, 72 h, HMEC, read-out: IC50 HMEC; for ratio HMEC: IC50 HMEC relative to IC50 NUGC4
Procedure: [Worded in the source for another cell line; this cell line is reported under the same test.] as §1

[3] = Dose determination study (body weight change, maximum tolerated dose); format: in vivo; conditions: nude mice, peroral
Procedure: […]. The maximum tolerated dose was calculated based on the change in body weight of the mice.
During the administration period, percent body weight change of mice (BWC %) was calculated. […] Thus, the half value of the toxicity expression dose was decided as a maximum tolerated dose.
BWC of mice was calculated by the following equation, and the change in mean BWC of each group during the administration period is shown in FIG. 1. BWC(%)=([(body weight of mouse on the day of weight measurement)−(body weight of mouse at grouping)]/(body weight of mouse at grouping))×100

[4] = HAOSMC, normal, c-Met status (−), 3 days
[5] = 72 h, HCT-116, cancer, c-Met status (−), 3 days, read-out: IC50 HCT-116
[6] = normal, c-Met status (−), 3 days

Chain of c-Met (P08581 956-1390 limits assumed): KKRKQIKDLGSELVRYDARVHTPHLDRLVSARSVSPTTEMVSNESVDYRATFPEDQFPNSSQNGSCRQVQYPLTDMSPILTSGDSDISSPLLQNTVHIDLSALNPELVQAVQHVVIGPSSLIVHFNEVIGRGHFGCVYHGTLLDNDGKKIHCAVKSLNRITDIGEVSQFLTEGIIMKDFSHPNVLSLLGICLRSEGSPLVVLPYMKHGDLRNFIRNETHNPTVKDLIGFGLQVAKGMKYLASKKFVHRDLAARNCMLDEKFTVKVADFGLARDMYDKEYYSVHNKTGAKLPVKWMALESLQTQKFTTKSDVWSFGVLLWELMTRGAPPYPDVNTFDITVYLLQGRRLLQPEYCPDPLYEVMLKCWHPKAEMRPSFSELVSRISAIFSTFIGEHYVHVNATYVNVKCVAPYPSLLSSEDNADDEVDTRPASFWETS

IC50 (c-Met)	IC50 (HCT-116; [5])	Structure (SMILES)	IC50 [1, 4]	ratio HAOSMC [1]	ratio HCT-116 (HCT-116)	IC50 (NUGC4 cells)	IC50 [2, 6]	ratio HMEC [2]	IC50 [1]	IC50 (HCT-116; HCT-116, 72 h, read-out: IC50 HCT-116)	IC50 (HCT-116; HCT-116, read-out: IC50 to c-Met low expressing and normal cell strains)	MTD at 14 days ([3]; mouse, in vivo, oral, half value of the toxicity expression dose)	toxicity expression dose ([3]; 14 days, dose with ≧10% reduction in mean BWC)	body weight change ([3]; once a day, 14 days, 100 mg/kg)	decrease in BWC ([3]; once a day, 14 days, 200 mg/kg)	IC50 [2]
0.116 µM	29 µM	COc1cc2nccc(Oc3ccc(NC(=S)NC(=O)Cc4ccccc4)cc3F)c2cc1C(=O)NCCCN1CCCC1=O [Example 5, 4-(2-Fluoro-4-(3-(2-phenylacetyl)thioureido)phenoxy)-7-methoxy-N-(3-(2-oxopyrrolidin-1-yl)propyl)quinoline-6-carboxamide]	> 30 µM	>879	857	0.03 µM	23 µM	681	–	–	–	–	–	–	–	–
0.059 µM	11 µM	COc1cc2nccc(Oc3ccc(NC(=S)NC(=O)Cc4ccccc4)cc3F)c2cc1C(=O)NCCS(C)(=O)=O [Example 27, 4-(2-Fluoro-4-(3-(2-phenylacetyl)thioureido)phenoxy)-7-methoxy-N-(2-(methylsulfonyl)ethyl)quinoline-6-carboxamide]	> 30 µM	>1893	714	0.02 µM	14 µM	1894	–	–	–	–	–	–	–	–

Continued, compound first:

Structure (SMILES)	IC50 (c-Met)	IC50 (HCT-116; [5])	IC50 [1, 4]	ratio HAOSMC [1]	ratio HCT-116 (HCT-116)	IC50 (NUGC4 cells)	IC50 [2, 6]	ratio HMEC [2]	IC50 [1]	IC50 (HCT-116; HCT-116, 72 h, read-out: IC50 HCT-116)	IC50 (HCT-116; HCT-116, read-out: IC50 to c-Met low expressing and normal cell strains)	MTD at 14 days ([3]; mouse, in vivo, oral, half value of the toxicity expression dose)	toxicity expression dose ([3]; 14 days, dose with ≧10% reduction in mean BWC)	body weight change ([3]; once a day, 14 days, 100 mg/kg)	decrease in BWC ([3]; once a day, 14 days, 200 mg/kg)	IC50 [2]
COc1cc2nccc(Oc3ccc(NC(=S)NC(=O)Cc4ccccc4)cc3F)c2cc1C(=O)NCC(=O)N(C)C [Example 22, N-(2-(Dimethylamino)-2-oxoethyl)-4-(2-fluoro-4-(3-(2-phenylacetyl)thioureido)phenoxy)-7-methoxyquinoline-6-carboxamide]	0.25 µM	> 30 µM	> 30 µM	>3000	>3000	0.01 µM	> 30 µM	>3000	–	–	–	–	–	–	–	–
COc1cc2nccc(Oc3ccc(NC(=S)NC(=O)Cc4ccccc4)cc3F)c2cc1C(=O)NCC(=O)N1CCOCC1 [Example 21, 4-(2-Fluoro-4-(3-(2-phenylacetyl)thioureido)phenoxy)-7-methoxy-N-(2-morpholino-2-oxoethyl)quinoline-6-carboxamide]	0.118 µM	> 30 µM	> 30 µM	>3000	>3000	0.01 µM	5 µM	3000	–	–	–	–	–	–	–	–
COc1cc2nccc(Oc3ccc(NC(=S)NC(=O)Cc4ccccc4)cc3F)c2cc1OC [Comp. Ex. 1, reference compound]	–	–	–	–	–	0.2 µM	–	–	24 µM	17 µM	15 to 24 µM	100 mg/kg	200 mg/kg	no decrease in body weight was observed	> 10%	15 µM
COc1cc2nccc(Oc3ccc(NC(=S)NC(=O)Cc4ccc(F)cc4)cc3F)c2cc1C(=O)NC1CCCCNC1=O (stereo not shown) [Example 19, 4-(2-Fluoro-4-(3-(2-(4-fluorophenyl)acetyl)thioureido)phenoxy)-7-methoxy-N-(2-oxoazepan-3-yl)quinoline-6-carboxamide]	0.338 µM	> 30 µM	> 30 µM	>3000	>3000	0.01 µM	18 µM	3000	–	–	–	–	–	–	–	–
